Assay results reported in PubChem BioAssay (NCI).
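Where inhibition never reached the appropriate level, the endpoint shown equals the highest concentration tested. Otherwise, values were interpolated linearly from a five-concentration, 48-hour dose response in 96-well plates. GI50 is the concentration that inhibits growth by half. TGI is the concentration that stops growth completely.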

Tests used:
Test in all cases: NCI tumour cell line growth inhibition, 48 h
CAKI-1 renal = test system: CAKI-1 renal
MCF7 breast = test system: MCF7 breast
MDA-MB-435 = test system: MDA-MB-435
KM12 colon = test system: KM12 colon
NCI-H522 lung = test system: NCI-H522 lung
EKVX NSCLC = test system: EKVX NSCLC
LOX IMVI melanoma = test system: LOX IMVI melanoma
RXF 393 renal = test system: RXF 393 renal
IGROV1 ovarian = test system: IGROV1 ovarian
SK-MEL-5 melanoma = test system: SK-MEL-5 melanoma
UACC-62 melanoma = test system: UACC-62 melanoma
BT-549 breast = test system: BT-549 breast
OVCAR-8 ovarian = test system: OVCAR-8 ovarian
SF-539 CNS = test system: SF-539 CNS
TK-10 renal = test system: TK-10 renal
NCI/ADR-RES ovarian = test system: NCI/ADR-RES ovarian
MALME-3M melanoma = test system: MALME-3M melanoma
NCI-H226 lung = test system: NCI-H226 lung
U251 CNS = test system: U251 CNS
COLO 205 colon = test system: COLO 205 colon
SW-620 colon = test system: SW-620 colon
A498 renal = test system: A498 renal
K-562 leukemia = test system: K-562 leukemia
NCI-H23 lung = test system: NCI-H23 lung
MDA-MB-468 breast = test system: MDA-MB-468 breast
HCT-15 colon = test system: HCT-15 colon
SN12C renal = test system: SN12C renal
MDA-MB-231 breast = test system: MDA-MB-231 breast
SF-295 CNS = test system: SF-295 CNS
NCI-H460 lung = test system: NCI-H460 lung
MOLT-4 leukemia = test system: MOLT-4 leukemia
OVCAR-5 ovarian = test system: OVCAR-5 ovarian
DU-145 prostate = test system: DU-145 prostate
HL-60(TB) leukemia = test system: HL-60(TB) leukemia
SK-MEL-28 melanoma = test system: SK-MEL-28 melanoma
UO-31 renal = test system: UO-31 renal
SK-OV-3 ovarian = test system: SK-OV-3 ovarian
UACC-257 melanoma = test system: UACC-257 melanoma
OVCAR-3 ovarian = test system: OVCAR-3 ovarian
A549 NSCLC = test system: A549 NSCLC
T-47D breast = test system: T-47D breast
HS 578T breast = test system: HS 578T breast
SF-268 CNS = test system: SF-268 CNS
M14 melanoma = test system: M14 melanoma
HCT-116 colon = test system: HCT-116 colon
SNB-19 CNS = test system: SNB-19 CNS
CCRF-CEM leukemia = test system: CCRF-CEM leukemia
HOP-62 NSCLC = test system: HOP-62 NSCLC
HCC-2998 colon = test system: HCC-2998 colon
PC-3 prostate = test system: PC-3 prostate
HT29 colon = test system: HT29 colon
HOP-92 NSCLC = test system: HOP-92 NSCLC
RPMI-8226 leukemia = test system: RPMI-8226 leukemia
SR leukemia = test system: SR leukemia
SK-MEL-2 melanoma = test system: SK-MEL-2 melanoma

For N/C(=N\c1nc2ccc([N+](=O)[O-])cc2s1)NC(=O)Nc1ccccc1Cl, the GI50 (CAKI-1 renal) was 3.58 µM, the TGI (CAKI-1 renal) was over 100 µM and the GI50 (MCF7 breast) was 7.69 µM. It also gave a TGI (MCF7 breast) of over 100 µM, a GI50 (MDA-MB-435) of 2260 nM and a TGI (MDA-MB-435) of 7.77 µM. It also gave a GI50 (KM12 colon) of 6.95 µM, a TGI (KM12 colon) of over 100 µM and a GI50 (NCI-H522 lung) of 3.46 µM. For the same compound, the TGI (NCI-H522 lung) was 41.5 µM, the GI50 (EKVX NSCLC) was 12.4 µM and the TGI (EKVX NSCLC) was over 100 µM. For the same compound, the GI50 (LOX IMVI melanoma) was 9.3 µM, the TGI (LOX IMVI melanoma) was over 100 µM and the GI50 (RXF 393 renal) was 3.79 µM. It also gave a TGI (RXF 393 renal) of over 100 µM, a GI50 (IGROV1 ovarian) of 9.77 µM and a TGI (IGROV1 ovarian) of over 100 µM. For the same compound, the GI50 (SK-MEL-5 melanoma) was 11.4 µM, the TGI (SK-MEL-5 melanoma) was 38.6 µM and the GI50 (UACC-62 melanoma) was 14.9 µM. The TGI (UACC-62 melanoma) was 66.6 µM, the GI50 (BT-549 breast) was 4.07 µM and the TGI (BT-549 breast) was over 100 µM. It also gave a GI50 (OVCAR-8 ovarian) of 3.9 µM, a TGI (OVCAR-8 ovarian) of over 100 µM and a GI50 (SF-539 CNS) of 4.55 µM. The TGI (SF-539 CNS) was 28.2 µM, the GI50 (TK-10 renal) was 3.6 µM and the TGI (TK-10 renal) was over 100 µM. For the same compound, the GI50 (NCI/ADR-RES ovarian) was 3.97 µM, the TGI (NCI/ADR-RES ovarian) was over 100 µM and the GI50 (MALME-3M melanoma) was 4.56 µM. It also gave a TGI (MALME-3M melanoma) of over 100 µM, a GI50 (NCI-H226 lung) of 5 µM and a TGI (NCI-H226 lung) of over 100 µM. For the same compound, the GI50 (U251 CNS) was 2300 nM, the TGI (U251 CNS) was 6.18 µM and the GI50 (COLO 205 colon) was 6.91 µM. For the same compound, the TGI (COLO 205 colon) was 76.2 µM, the GI50 (SW-620 colon) was 5.11 µM and the TGI (SW-620 colon) was over 100 µM. It also gave a GI50 (A498 renal) of 4.53 µM, a TGI (A498 renal) of 38 µM and a GI50 (K-562 leukemia) of 3.56 µM. The TGI (K-562 leukemia) was over 100 µM, the GI50 (NCI-H23 lung) was 4.55 µM and the TGI (NCI-H23 lung) was over 100 µM. The GI50 (MDA-MB-468 breast) was 3.16 µM, the TGI (MDA-MB-468 breast) was 13.1 µM and the GI50 (HCT-15 colon) was 6.92 µM. For the same compound, the TGI (HCT-15 colon) was over 100 µM, the GI50 (SN12C renal) was 4.2 µM and the TGI (SN12C renal) was over 100 µM. For the same compound, the GI50 (MDA-MB-231 breast) was 2450 nM, the TGI (MDA-MB-231 breast) was 6.88 µM and the GI50 (SF-295 CNS) was 17.6 µM. The TGI (SF-295 CNS) was 90.9 µM, the GI50 (NCI-H460 lung) was 3.1 µM and the TGI (NCI-H460 lung) was 8.71 µM. The GI50 (MOLT-4 leukemia) was 40 µM, the TGI (MOLT-4 leukemia) was over 100 µM and the GI50 (OVCAR-5 ovarian) was 4.12 µM. The TGI (OVCAR-5 ovarian) was over 100 µM, the GI50 (DU-145 prostate) was 5.63 µM and the TGI (DU-145 prostate) was over 100 µM. The GI50 (HL-60(TB) leukemia) was 22.4 µM, the TGI (HL-60(TB) leukemia) was over 100 µM and the GI50 (SK-MEL-28 melanoma) was 26.2 µM. The TGI (SK-MEL-28 melanoma) was over 100 µM, the GI50 (UO-31 renal) was 3.19 µM and the TGI (UO-31 renal) was over 100 µM. It also gave a GI50 (SK-OV-3 ovarian) of 6.63 µM, a TGI (SK-OV-3 ovarian) of 28.2 µM and a GI50 (UACC-257 melanoma) of 45.5 µM. For the same compound, the TGI (UACC-257 melanoma) was over 100 µM, the GI50 (OVCAR-3 ovarian) was 2410 nM and the TGI (OVCAR-3 ovarian) was 6.16 µM. The GI50 (A549 NSCLC) was 3.09 µM, the TGI (A549 NSCLC) was over 100 µM and the GI50 (T-47D breast) was 2710 nM. For the same compound, the TGI (T-47D breast) was over 100 µM, the GI50 (HS 578T breast) was 12.1 µM and the TGI (HS 578T breast) was over 100 µM. It also gave a GI50 (SF-268 CNS) of 15.1 µM, a TGI (SF-268 CNS) of over 100 µM and a GI50 (M14 melanoma) of 13.1 µM. For the same compound, the TGI (M14 melanoma) was 38.5 µM, the GI50 (HCT-116 colon) was 1690 nM and the TGI (HCT-116 colon) was 3.46 µM. It also gave a GI50 (SNB-19 CNS) of 10.2 µM, a TGI (SNB-19 CNS) of over 100 µM and a GI50 (CCRF-CEM leukemia) of 46.9 µM. The TGI (CCRF-CEM leukemia) was over 100 µM, the GI50 (HOP-62 NSCLC) was 10.8 µM and the TGI (HOP-62 NSCLC) was 94.4 µM. The GI50 (HCC-2998 colon) was 61.4 µM, the TGI (HCC-2998 colon) was over 100 µM and the GI50 (PC-3 prostate) was 28.9 µM. It also gave a TGI (PC-3 prostate) of over 100 µM, a GI50 (HT29 colon) of 13.9 µM and a TGI (HT29 colon) of over 100 µM. It also gave a GI50 (HOP-92 NSCLC) of 2970 nM, a TGI (HOP-92 NSCLC) of 17.5 µM and a GI50 (RPMI-8226 leukemia) of 72.2 µM. The TGI (RPMI-8226 leukemia) was over 100 µM, the GI50 (SR leukemia) was 2170 nM and the TGI (SR leukemia) was over 100 µM. It also gave a GI50 (SK-MEL-2 melanoma) of 23 µM and a TGI (SK-MEL-2 melanoma) of 50.2 µM.
